Data taken from the NIST ThermoML archive (doi:10.1016/j.jct.2005.10.007).

Assay: mn = molality of the nth substance listed, in mol/kg
Conditions: 350 kPa, Liquid, Extra sensitive DSC

C[C@H](N)C(=O)O [(S)-2-aminopropanoic acid] + O
apparent molar heat capacity [J/K/mol]
Conditions | m1 = 0.0152 | m1 = 0.0299 | m1 = 0.05 | m1 = 0.08 | m1 = 0.1247 | m1 = 0.2493 | m1 = 0.5149 | m1 = 1.002
278.15 K | 107 | 137 | 101.3 | 106 | 107 | 113.3 | 122.6 | 118.5
283.15 K | 119 | 148 | 113.2 | 117.9 | 118.8 | 124.8 | 133.2 | 128.7
288.15 K | 131 | 156 | 123.3 | 127.8 | 128.9 | 134.4 | 142 | 137.2
293.15 K | 143 | 163 | 131.5 | 136 | 137.4 | 142.4 | 149.5 | 144.3
298.15 K | 152 | 170 | 138.2 | 142.8 | 144.2 | 149.1 | 155.6 | 150.2
303.15 K | 158 | 174 | 143.9 | 148.7 | 150.3 | 154.9 | 160.8 | 155.5
308.15 K | 163 | 178 | 148.9 | 153.7 | 155.4 | 159.8 | 165.3 | 159.8
313.15 K | 169 | 182 | 153.6 | 158 | 159.9 | 164.1 | 169.3 | 163.8
318.15 K | 172 | 185 | 157.3 | 161.6 | 163.9 | 167.7 | 172.6 | 167.1
323.15 K | 175 | 188 | 160.9 | 164.9 | 167.3 | 170.9 | 175.5 | 170
328.15 K | 178 | 190 | 163.7 | 167.7 | 170.3 | 173.6 | 178 | 172.5
333.15 K | 181 | 192 | 166.4 | 170.2 | 173 | 176.1 | 180.3 | 174.8
338.15 K | 184 | 194 | 168.8 | 172.4 | 175.4 | 178.3 | 182.3 | 176.9
343.15 K | 187 | 196 | 170.7 | 174.2 | 177.3 | 180.1 | 183.9 | 178.6
348.15 K | 188 | 197 | 172.4 | 175.9 | 178.9 | 181.7 | 185.3 | 180.1
353.15 K | 190 | 198 | 174 | 177.4 | 180.5 | 183.1 | 186.6 | 181.4
358.15 K | 191 | 199 | 175.2 | 178.5 | 181.6 | 184.3 | 187.6 | 182.5
363.15 K | 192 | 199 | 176.1 | 179.4 | 182.5 | 185.1 | 188.4 | 183.5
368.15 K | 192 | 200 | 176.6 | 180.1 | 183.3 | 185.8 | 189 | 184.2
373.15 K | 192 | 200 | 177.1 | 180.5 | 183.7 | 186.2 | 189.4 | 184.8
378.15 K | 192 | 200 | 177.2 | 180.6 | 183.8 | 186.4 | 189.5 | 185.1
383.15 K | 192 | 200 | 177.1 | 180.7 | 183.9 | 186.4 | 189.6 | 185.4
388.15 K | 192 | 199 | 176.8 | 180.3 | 183.6 | 186.2 | 189.4 | 185.5
393.15 K | 190 | 200 | 176.6 | 179.8 | 183.1 | 185.8 | 189.2 | 185.5
